In ChEMBL document CHEMBL4118101 (Bioorg Med Chem, 2018):
Converted amounts (≈) assume the structure as drawn. The source made the active and inactive calls. The rule behind the calls is not given here.

Tests used:
Candida albicans [1] = experiment: Antifungal activity against fluconazole/ITC-resistant Candida albicans ATCC 90819 measured after 48 hrs by CLSI M27-A3 protocol based method; type: functional; conditions: Candida albicans, ATCC 90819, 48 h; read-out: MIC
Aspergillus terreus = experiment: Antifungal activity against Aspergillus terreus ATCC MYA-3633 measured after 48 hrs by CLSI M38-A2 protocol based method; type: functional; conditions: ATCC MYA-3633, 48 h
Candida albicans [2] = experiment: Induction of membrane permeabilization in Candida albicans ATCC 10231 assessed as membrane disruption at 4 times MIC after 1 hr by propidium iodide staining based fluorescence microscopy; type: functional, organism-based
Candida albicans [3] = experiment: Antifungal activity against fluconazole/ITC-resistant Candida albicans ATCC MYA-1003 measured after 48 hrs by CLSI M27-A3 protocol based method; type: functional; conditions: Candida albicans, ATCC MYA-1003, 48 h; read-out: MIC
Aspergillus flavus = experiment: Antifungal activity against Aspergillus flavus ATCC MYA-3631 measured after 48 hrs by CLSI M38-A2 protocol based method; type: functional; conditions: ATCC MYA-3631, 48 h
A549 = experiment: Cytotoxicity against human A549 cells at 15.5 ug/ml after 24 hrs by resazurin based assay; type: cell-based; conditions: a549, 24 h
Candida albicans [4] = experiment: Antifungal activity against fluconazole/ITC-susceptible Candida albicans ATCC MYA-2876 measured after 48 hrs by CLSI M27-A3 protocol based method; type: functional; conditions: Candida albicans, ATCC MYA-2876, 48 h
Pichia kudriavzevii = experiment: Antifungal activity against Candida krusei ATCC 6258 measured after 48 hrs by CLSI M27-A3 protocol based method; type: functional; conditions: Pichia kudriavzevii, ATCC 6258, 48 h
Candida parapsilosis [5] = experiment: Fungistatic activity against Candida parapsilosis ATCC 22019 up to 4 times MIC incubated for 24 hrs by time kill assay; type: functional, organism-based
Candida albicans [6] = experiment: Antifungal activity against Candida albicans ATCC 64124 measured after 48 hrs by CLSI M27-A3 protocol based method; type: functional; conditions: Candida albicans, ATCC 64124, 48 h; read-out: MIC
Nakaseomyces glabratus [7] = experiment: Antifungal activity against Candida glabrata isolate CG1 measured after 48 hrs by CLSI M27-A3 protocol based method; type: functional; conditions: Nakaseomyces glabratus, 48 h; read-out: MIC
Cryptococcus neoformans [8] = experiment: Antifungal activity against Cryptococcus neoformans isolate CN2 measured after 48 hrs by CLSI M27-A3 protocol based method; type: functional; conditions: Cryptococcus neoformans, isolate CN2, 48 h; read-out: MIC
[9] = Hemolytic activity in mouse RBC at 31.3 ug/ml after 1 hr relative to control; type: ADME, cell-based, Erythrocyte; conditions: mouse red blood cells (erythrocytes), at 31.3 µg/mL, read-out: Activity
[10] = Hemolytic activity in mouse RBC at […] ug/ml after 1 hr relative to control; type: ADME, cell-based, Erythrocyte; conditions: mouse red blood cells (erythrocytes), read-out: Activity
Candida parapsilosis [11] = experiment: Antifungal activity against Candida parapsilosis isolate CP2 measured after 48 hrs by CLSI M27-A3 protocol based method; type: functional; conditions: Lodderomyces parapsilosis, isolate CP2, 48 h
Nakaseomyces glabratus [12] = experiment: Antifungal activity against Candida glabrata isolate CG3 measured after 48 hrs by CLSI M27-A3 protocol based method; type: functional; conditions: Nakaseomyces glabratus, 48 h; read-out: MIC
Nakaseomyces glabratus [13] = experiment: Antifungal activity against Candida glabrata ATCC 2001 measured after 48 hrs by CLSI M27-A3 protocol based method; type: functional, CBS 138; conditions: Nakaseomyces glabratus, CBS 138, 48 h; read-out: MIC
Aspergillus nidulans = experiment: Antifungal activity against Aspergillus nidulans ATCC 38163 measured after 48 hrs by CLSI M38-A2 protocol based method; type: functional; conditions: ATCC 38163, 48 h
HEK293 = experiment: Cytotoxicity against HEK293 cells up to 31 ug/ml after 24 hrs by resazurin based assay; type: cell-based; conditions: human, hek293, 24 h
BEAS-2B = experiment: Cytotoxicity against human BEAS2B cells at 31 ug/ml after 24 hrs by resazurin based assay; type: cell-based
Cryptococcus neoformans [14] = experiment: Antifungal activity against Cryptococcus neoformans isolate CN1 measured after 48 hrs by CLSI M27-A3 protocol based method; type: functional; conditions: isolate CN1, 48 h
Candida albicans [15] = experiment: Antifungal activity against Candida albicans ATCC 10231 measured after 48 hrs by CLSI M27-A3 protocol based method; type: functional; conditions: ATCC 10231, 48 h
Candida parapsilosis [16] = experiment: Antifungal activity against Candida parapsilosis isolate CP3 measured after 48 hrs by CLSI M27-A3 protocol based method; type: functional; conditions: Lodderomyces parapsilosis, isolate CP3, 48 h
[17] = Hemolytic activity in mouse RBC at 0.48 ug/ml after 1 hr relative to control; type: ADME, cell-based, Erythrocyte; conditions: mouse red blood cells (erythrocytes), read-out: Activity
Cryptococcus neoformans [18] = experiment: Antifungal activity against Cryptococcus neoformans isolate CN3 measured after 48 hrs by CLSI M27-A3 protocol based method; type: functional; conditions: Cryptococcus neoformans, isolate CN3, 48 h; read-out: MIC
Candida albicans [19] = experiment: Fungistatic activity against Candida albicans ATCC 10231 at 4 times MIC incubated for 24 hrs by time kill assay; type: functional, organism-based
Candida albicans [20] = experiment: Antifungal activity against fluconazole/ITC-resistant Candida albicans ATCC MYA-1237 measured after 48 hrs by CLSI M27-A3 protocol based method; type: functional; conditions: Candida albicans, ATCC MYA-1237, 48 h; read-out: MIC
Candida albicans [21] = experiment: Antifungal activity against fluconazole/ITC-susceptible Candida albicans ATCC MYA-2310 measured after 48 hrs by CLSI M27-A3 protocol based method; type: functional; conditions: Candida albicans, ATCC MYA-2310, 48 h; read-out: MIC
Candida parapsilosis [22] = experiment: Antifungal activity against Candida parapsilosis isolate CP1 measured after 48 hrs by CLSI M27-A3 protocol based method; type: functional; conditions: Lodderomyces parapsilosis, isolate CP1, 48 h
[23] = Hemolytic activity in mouse RBC at 7.8 ug/ml after 1 hr relative to control; type: ADME, cell-based, Erythrocyte; conditions: mouse red blood cells (erythrocytes), read-out: Activity
[24] = Hemolytic activity in mouse RBC at 62.5 ug/ml after 1 hr relative to control; type: ADME, cell-based, Erythrocyte; conditions: mouse red blood cells (erythrocytes), read-out: Activity
[25] = Hemolytic activity in mouse RBC at 1.95 ug/ml after 1 hr relative to control; type: ADME, cell-based, Erythrocyte; conditions: mouse red blood cells (erythrocytes), at 1.95 µg/mL, read-out: Activity
[26] = Hemolytic activity in mouse RBC at 3.9 ug/ml after 1 hr relative to control; type: ADME, cell-based, Erythrocyte; conditions: mouse red blood cells (erythrocytes), read-out: Activity
Candida parapsilosis [27] = experiment: Antifungal activity against Candida parapsilosis ATCC 22019 measured after 48 hrs by CLSI M27-A3 protocol based method; type: functional; conditions: Lodderomyces parapsilosis, ATCC 22019, 48 h
Nakaseomyces glabratus [28] = experiment: Antifungal activity against Candida glabrata isolate CG2 measured after 48 hrs by CLSI M27-A3 protocol based method; type: functional; conditions: Nakaseomyces glabratus, isolate CG2, 48 h; read-out: MIC

In the case of `CCCCCCCCNCC(O)(Cn1cncn1)c1ccc(F)cc1F` (stereo unspecified), the MIC (Candida albicans [1]) is reported as 21.3 µM (≈ 7.81 µg/mL), the MIC (Aspergillus terreus) is reported as 42.6 µM (≈ 15.6 µg/mL) and the Activity (Candida albicans [2]) is reported as “inactive”. For the same molecule, the MIC (Candida albicans [3]) was 85.4 µM (≈ 31.3 µg/mL), the MIC (Aspergillus flavus) was > 85.4 µM and the Activity (A549) was “Non-Toxic”. For the same molecule, the MIC (Candida albicans [4]) was 85.4 µM (≈ 31.3 µg/mL), the MIC (Pichia kudriavzevii) was 2.7 µM (≈ 0.989 µg/mL) and the Activity (Candida parapsilosis [5]) was “Active”. For the same molecule, the MIC (Candida albicans [6]) was > 85.4 µM, the MIC (Nakaseomyces glabratus [7]) was 21.3 µM (≈ 7.81 µg/mL) and the MIC (Cryptococcus neoformans [8]) was 10.6 µM (≈ 3.88 µg/mL). For the same molecule, the hemolysis at 1 h, 31.3 ug/ml [9] was 9%, the hemolysis at 1 h, 0.975 ug/ml [10] was 2% and the hemolysis at 1 h, 15.6 ug/ml [10] was 3%. For the same molecule, the MIC (Candida parapsilosis [11]) was 0.33 µM (≈ 0.121 µg/mL), the MIC (Nakaseomyces glabratus [12]) was 42.6 µM (≈ 15.6 µg/mL) and the MIC (Nakaseomyces glabratus [13]) was 2.7 to 21.3 µM (≈ 0.989 to 7.81 µg/mL). For the same molecule, the MIC (Aspergillus nidulans) was 5.3 µM (≈ 1.94 µg/mL), the Activity (HEK293) was “Non-Toxic” and the Activity (BEAS-2B) was “Non-Toxic”. For the same molecule, the MIC (Cryptococcus neoformans [14]) was 5.3 µM (≈ 1.94 µg/mL), the MIC (Candida albicans [15]) was 2.7 µM (≈ 0.989 µg/mL) and the MIC (Candida parapsilosis [16]) was 0.65 µM (≈ 0.238 µg/mL). For the same molecule, the hemolysis at 1 h, 0.48 ug/ml [17] was 2%, the MIC (Cryptococcus neoformans [18]) was 10.6 µM (≈ 3.88 µg/mL) and the Activity (Candida albicans [19]) was “Active”. For the same molecule, the MIC (Candida albicans [20]) was 42.6 µM (≈ 15.6 µg/mL), the MIC (Candida albicans [21]) was 85.4 µM (≈ 31.3 µg/mL) and the MIC (Candida parapsilosis [22]) was 1.3 µM (≈ 0.476 µg/mL). For the same molecule, the hemolysis at 1 h, 7.8 ug/ml [23] was 0%, the hemolysis at 1 h, 62.5 ug/ml [24] was 78% and the hemolysis at 1 h, 1.95 ug/ml [25] was 0%. It also gave a hemolysis at 1 h, 3.9 ug/ml [26] of 2%, an MIC (Candida parapsilosis [27]) of 0.16 µM (≈ 0.0586 µg/mL) and an MIC (Nakaseomyces glabratus [28]) of 2.7 µM (≈ 0.989 µg/mL).
